The target of the assay is T1, Sodium/myo-inositol cotransporter 2 (Homo sapiens, UniProt Q8WWX8).
T1 sequence (Q8WWX8 whole entry): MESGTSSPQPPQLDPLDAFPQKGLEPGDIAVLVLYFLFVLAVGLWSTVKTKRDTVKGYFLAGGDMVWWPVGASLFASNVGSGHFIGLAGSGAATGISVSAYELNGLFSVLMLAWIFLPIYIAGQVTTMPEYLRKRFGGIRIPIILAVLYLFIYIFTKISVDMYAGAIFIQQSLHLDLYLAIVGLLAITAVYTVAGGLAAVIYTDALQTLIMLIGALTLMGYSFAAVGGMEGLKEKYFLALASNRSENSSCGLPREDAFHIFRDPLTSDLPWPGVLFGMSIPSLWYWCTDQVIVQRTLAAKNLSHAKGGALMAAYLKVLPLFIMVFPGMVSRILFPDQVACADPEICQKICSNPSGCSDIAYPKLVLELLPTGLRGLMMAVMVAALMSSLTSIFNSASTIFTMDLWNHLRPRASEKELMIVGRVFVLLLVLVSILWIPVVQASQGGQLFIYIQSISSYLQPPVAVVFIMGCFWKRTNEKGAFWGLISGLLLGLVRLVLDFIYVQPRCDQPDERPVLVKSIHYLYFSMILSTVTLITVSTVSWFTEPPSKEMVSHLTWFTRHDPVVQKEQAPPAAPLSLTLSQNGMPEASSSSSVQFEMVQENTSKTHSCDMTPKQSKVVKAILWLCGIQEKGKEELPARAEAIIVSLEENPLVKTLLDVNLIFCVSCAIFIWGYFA
Put plainly: Substrate uptake by the Sodium/myo-inositol cotransporter 2 (SMIT2, SLC5A11) as assessed by the fluorescent FLIPR membrane potential dye in HEK-293 JumpIN-SLC5A11 cells (PubChem AID: 1794826). Format: functional, cell-based, HEK293.

The record followed here is ChEMBL document CHEMBL5209568, “Membrane potential based assay for SLC5A11 using HEK-293 SLC5A11 OE cells” (2022).

The molecule `O[C@H]1[C@@H](O)[C@@H](O)[C@@H](O)[C@@H](O)[C@@H]1O` had an EC50 of 104 µM.
